Measured values reported in US12522597B2, “Methods and compositions for modulating splicing” (Skyhawk Therapeutics, Inc., priority 2019, dated 2026).
Read-outs that look alike come from different tables or passages of the source.

Assays:
[1] = tested on: MDR1-MDCK cell monolayers; assay: MDCK-MDR1 permeability assay (BBB penetration potential); format: in vitro ADME; conditions: dog, MDCK-MDR1, 120 min, 5 μM, pH 7.4
Method: (§1) Each determination is performed in duplicate. […] Analytical conditions are outlined below.

MDR1 = assay: as above; format: in vitro ADME; conditions: dog; for efflux ratio at 120 min, 5 μM: MDCK-MDR1, pH 7.4, MDCK-MDR1: Efflux; for Papp A→B at 120 min, 5 μM: MDCK-MDR1, pH 7.4, MDCK-MDR1: Papp A-B; for Papp B→A at 120 min, 5 μM: MDCK-MDR1, pH 7.4, MDCK-MDR1: Papp B-A
Method: as §1

mHTT protein = mHTT protein assay (2B7-MW1, Mesoscale Discovery); format: cell-based, human; conditions: GM04724 (CAG 70/20) Huntington's disease patient lymphoblast cells, 48 hours, 2B7-MW1 MSD; read-out: HTT Potency - Protein EC50 mHTT (average)
Outline: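 mHTT levels were read with the 2B7-MW1 antibody pair (N17 and polyQ epitopes) on MSD after 48 h dosing, 10 μM–0.6 nM. Cells were GM04724 HD lymphoblasts (CAG 70/20). A replica plate was read by CTG for cell viability.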

[2] = tested on: Huntingtin (HTT) transcripts; assay: Quantitative splicing assay (HTT), qPCR; format: cell-based; conditions: Homo sapiens, GM04724 (CAG 70/20) Huntington's disease patient lymphoblasts, 24 h
Method: GM04724 (CAG 70/20) Huntington's disease patient lymphoblasts (Coriell) are plated in 96-wel v-bottom plates at 50,000 cells/well. Immediately after plating, cells are dosed with compound for 24 h at concentrations ranging from 2.5 uM to 0.15 nM (0.1% DMSO). Treated cells are lysed and cDNA synthesized using the Fast Advanced Cells-to-Ct kit (Thermofisher A35378) according to the manufacturer's instructions. 2 uL of each cDNA are used in qPCR reactions to confirm the compound-induced inclusion of a cryptic exon within intron 49 of the Huntingtin (HTT) transcripts. The qPCR reactions are prepared in 384-well plates in 10 uL volume, using TaqMan™ Fast Advanced Master Mix [ThermoFisher; 4444965] with primers and probes shown in the table below. Reactions are run in a Quant Studio 6 qPCR instrument with default settings.

[3] = qPCR HTTex49_50, read-out: HTT Potency - Splicing: E49-50 EC50 (average)
[4] = qPCR cryptic exon 49b inclusion, read-out: HTT Potency - Splicing: E49b EC50 (average)

| Compound | MDCK-MDR1: % Recov A-B [1] | MDCK-MDR1: % Recov B-A [1] | efflux ratio at 120 min, 5 μM (MDR1) | Papp A→B at 120 min, 5 μM (MDR1) | Papp B→A at 120 min, 5 μM (MDR1) | EC50 (mHTT protein) | EC50 [2, 3] | EC50 [2, 4] |
| --- | --- | --- | --- | --- | --- | --- | --- | --- |
| Cn1cc(-c2cc(O)c(-c3ccc(O[C@@H]4C[C@H]5CCC[C@H](N5)[C@@H]4F)nn3)cc2F)cn1 (single isomer, unassigned) [82-ENT1] | 45% | 72% | 4 | 4.12 ×10⁻⁶ cm/s | 16.8 ×10⁻⁶ cm/s | 0.01 to 15 nM | 0.01 to 15 nM | 0.01 to 15 nM |
| Oc1cc(-n2cccn2)ccc1-c1ccc(O[C@H]2C[C@@H]3CC[C@@H](N3)[C@H]2F)nn1 (single isomer, unassigned) [35-ENT2] | 62% | 68% | 4 | 6.25 ×10⁻⁶ cm/s | 24 ×10⁻⁶ cm/s | 51 to 100 nM | 101 to 500 nM | 101 to 500 nM |
| Oc1cc(-c2ccn3ccnc3c2)ccc1-c1ccc(O[C@@H]2C[C@H]3CCC[C@H](N3)[C@@H]2F)nn1 (single isomer, unassigned) [83-ENT1] | 48% | 64% | 23 | 1.05 ×10⁻⁶ cm/s | 23.8 ×10⁻⁶ cm/s | 101 to 500 nM | 501 to 10000 nM | 501 to 10000 nM |
| Cc1ncc(-c2ccc(-c3ccc(O[C@H]4C[C@@H]5CCC[C@@H](N5)[C@H]4F)nn3)c(O)c2)s1 (single isomer, unassigned) [96-ENT2] | 35% | 67% | 2 | 6.73 ×10⁻⁶ cm/s | 11.6 ×10⁻⁶ cm/s | 16 to 50 nM | 16 to 50 nM | 16 to 50 nM |
| Oc1cc(-c2cn[nH]c2)c(F)cc1-c1ccc(O[C@@H]2C[C@H]3CCC[C@H](N3)[C@@H]2F)nn1 (single isomer, unassigned) [56-ENT1] | 55% | 74% | 15 | 2.63 ×10⁻⁶ cm/s | 39 ×10⁻⁶ cm/s | 0.01 to 15 nM | 0.01 to 15 nM | 0.01 to 15 nM |
| COc1cc(-c2ccc(-c3ccc(O[C@@H]4C[C@@]5(C)CC[C@](C)(N5)[C@@H]4F)nn3)c(O)c2)cnn1 (single isomer, unassigned) [157-ENT1] | 77% | 84% | 6 | 6.28 ×10⁻⁶ cm/s | 35.7 ×10⁻⁶ cm/s | 16 to 50 nM | 16 to 50 nM | 16 to 50 nM |
| Cn1cc(-c2cc(O)c(-c3ccc(O[C@H]4C[C@@H]5CC[C@@H](N5)[C@H]4F)nn3)cc2F)cn1 (single isomer, unassigned) [61-ENT2] | 36% | 71% | 3 | 4.5 ×10⁻⁶ cm/s | 12.2 ×10⁻⁶ cm/s | 0.01 to 15 nM | 16 to 50 nM | 0.01 to 15 nM |
| C[C@]12CC[C@](C)(N1)[C@H](F)[C@H](Oc1ccc(-c3ccc(-c4cn[nH]c4)cc3O)nn1)C2 (single isomer, unassigned) [2-ENT1] | 77% | 89% | 12 | 4.15 ×10⁻⁶ cm/s | 50.7 ×10⁻⁶ cm/s | 0.01 to 15 nM | 0.01 to 15 nM | 0.01 to 15 nM |
| Cn1cc(-c2ccc(-c3ccc(O[C@@H]4C[C@H]5CCC[C@H](N5)[C@H]4F)nn3)c(O)c2)cn1 (single isomer, unassigned) [49-ENT1] | 49% | 82% | 2 | 5.36 ×10⁻⁶ cm/s | 11.8 ×10⁻⁶ cm/s | 51 to 100 nM | 51 to 100 nM | 51 to 100 nM |
| C[C@]12CCC[C@](C)(N1)[C@H](F)[C@H](Oc1ccc(-c3ccc(-c4cn[nH]c4)cc3O)nn1)C2 (single isomer, unassigned) [147-ENT2] | 71% | 80% | 13 | 4.46 ×10⁻⁶ cm/s | 58.1 ×10⁻⁶ cm/s | 0.01 to 15 nM | 0.01 to 15 nM | 0.01 to 15 nM |
